Square brackets hold non-standard residues; d marks the D form. Peptide text beside a SMILES is read from it. Aoe = N[C@@H](CCCCCC(=O)[C@@H]1CO1)C(=O)O
How the values were obtained:
CD34+ cells [1] = assay: Annexin V staining (apoptosis); type: cell-based, human; details: day 3, 5 and 7
Description: To investigate whether the lower total nucleated cell number observed in TSA treated culture was possibly due to apoptosis, annexin V staining with TSA, MS275 or DMSO treated cells on day 3, 5 and 7 was performed.

PBMC CD34+ cells [2] = assay: In vitro colony formation in methylcellulose (CFU assay); type: cell-based, human; details: eight days after plating
Description: Tubes of MethoCult® H4434 (Stem Cell Technologies) medium were thawed overnight in a 4° C. refrigerator. The next morning CB CD34+ cells were prepared at 10× the final concentration required. Cell suspensions of 2000 cells per 0.3 mL were prepared. Cells were added to 3 mL of MethoCult® medium for duplicate cultures. A 16 gauge blunt-end needle attached to a 3 cc syringe was used to dispense the cells and MethoCult® medium into culture dishes. 1.1 mL of cells was dispensed per 35 mm dish. The two dishes were placed into a 100 mm petri dish and a third, uncovered 35 mm dish containing 3 mL of sterile water was also added. All 3 dishes were then covered within the 100 mm petri dish. […] […] CFUs were counted under the microscopy.
Since the CD34+CD90+ cells are a CD34+ subpopulation with severe combined immunodeficient (SCID) repopulating activity (SRA), The Inventors next test whether the preferential expansion of these cells mediated by TSA or MS-275 treatment can lead to increased hematopoietic differentiation/proliferation in vitro and SRA engraftment in vivo. The Inventors first treated PBMC CD34+ cells with TSA or MS-275 treatments followed by assessment of in vitro colony formation in methylcellulose. […] To quantify large and small colonies, The Inventors classified as large as >50 and small as 5-50 clusters, respectively.

PBSC CD34+ cells [3] = assay: Ex vivo culture of PBSC CD34+ cells with TSA or MS275 (CD34+CD90+ expansion, cell growth); type: cell-based, human; details: for expression of CD34+CD90+ cells after one day exposure: 24 hours exposure then washed or not washed, evaluated on day 3 and day 5; for growth rate compared with DMSO / cell growth (cell number) of CD34+ cells: FIG. 3A; for cell growth (cell number) of CD34+ cells: mean±SDV of three experiments; for absolute number of CD34+CD90+ cells: from day 5 to day 7
[4] = tested on: primary human CD34+ cells from PBSC; assay: Screening of compounds which increase CD34+CD90+ cells (high throughput flow cytometry); type: cell-based; details: for CD34+CD90+ population compared with that of DMSO treated CD34+ cells: PBSC CD34+ cells, 4 or 5-day culture with cytokines (CC100), FIG. 1A; for absolute number of CD34+CD90+ cells: screen, compared with other compounds, FIG. 1B
Source text: Cells were stained with antihuman CD34 monoclonal antibody conjugated to phycoerythrin (PE), or allophycocyanin (APC), antihuman CD90 conjugated fluorescein isothiocyanate (FITC) or APC, CD38 APC, CD 3 tri-color (TC), CD19 TC, CD11b TC, CD41 TC, CD45 FITC and mouse CD45 APC. The flow cytometry data were collected using FACS Calibur flow cytometer (Becton Dickinson, San Jose, Calif., USA) or and analysed by using FLOWJO software.
To identify or confirm the molecules that expand CD34+CD90+ cells, the Inventors developed an assay using primary human CD34+ cells from PBSC and evaluated CD34 and CD90 expression by high throughput flow cytometry after a 4 or 5-day culture.
Using this assay, the Inventors screened FDA approved 446 compounds and 14 small molecule drugs including a panel of epigenetic modifiers as shown in Table 2. Human PBSC CD34+ cells were purified and cultured in IMDM with fetal bovine serum (FBS; GIBCO; final concentration 30%) and CC100 (a CD34 maintaining culture medium containing stem cell factor; SCF, Flt3 ligand; FL, Interleukin-3; IL3 and Interleukin-6; IL6; Stem Cell Technologies).

CD34+ cells [5] = assay: CFSE labeling to assess cell division; type: cell-based, human; details: by day 5, CFSE
Description: Primary CD34+ cells were labeled for 10 minutes at 37° C. with 0.5 uM of carboxyfluorescein diacetate succinimidyl ester (CSFE; Invirtogen, NY, USA) in PBS. After […] of culture, cell were labeled with CD34 PE and analyzed for a progressive decline of fluoredcence intensity of CSFE using FACSCalibur flow cytometer.
To assess whether the lower total nucleated cell number observed in TSA treated culture was due to a delay in differentiation or proliferation, the Inventors performed a cell-division-monitoring dye carboxyfluorescein succinimidyl ester (CFSE) assay, a fluorescent cytoplasmic dye which allowed counting of cell divisions of CD34+ cells after in vitro culture. While 66.0% of non-treated CD34+ cells divided at least more than 4 times by day 5, only 9.02% of TSA treated cells went through a similar number of cell divisions (FIG. 3B).
The Inventors then investigated whether TSA treatment led to increased CD34+CD90+ cells through self-renewal proliferation as assessed by surface markers. Using CD34+CD90− cells as a control population, the cell division profile of CD34+CD90+ cells upon TSA treatment was analyzed using the CSFE assay after 5 and 7 days of in vitro culture.

CB CD34+ cells = assay: Engraftment of cultured CD34+ cells in NSG mice (SCID repopulating activity); type: in vivo
Description: NSG (NOD.Cg-Prkdcscid Il2rgtm1Wjl/SzJ, The Jackson Laboratory, ME, USA) mice were bred and maintained in the Children's Hospital Boston animal facility. All animal work has been approved by and done according to the guidelines of the IACUC under protocol 10-101832. The CB CD34+ cells treated with wild type-peptide and scrambled-peptide were injected intravenously via the tail vein into sub-lethally irradiated (220 rads) 8 to 16-week-old NSG mice. Engraftment was performed within 24 h after irradiation. Peripheral blood (PB) chimerism was monitored at 2 and 8 weeks post transplantation. Bone marrow (BM) chimerism was monitored at 8 weeks post transplantation. […] The percentage of human CD45+ cells was calculated as follows: % human CD45+ cells=No. human CD45+ cells/(No. human CD45+ cells + No. mouse CD45+ cells)×100. […]
Based on in vitro phenotypic analysis described above, The Inventors transplanted cells after culture for 5 or7 days with cytokine alone or TSA into NSG mice to evaluate immunodeficient (SCID) repopulating activity (SRA) as a measure of enhanced HSPC function. Because Vanheuden et al, reported that severe combined immunodeficient (SCID) repopulating activity (rSRA) is mediated by CD34+CD38CD90+CD45RA− cells after in vitro culture, the Inventors first analyzed SRA activity in peripheral blood (PB) 2 weeks after transplant.

[6] = tested on: cord blood CD34+CD90+ cells; details: cited from earlier work
PBMC CD34+ cells [7] = assay: Lentiviral transduction (GFP vector) of CD34+ cells; type: cell-based, human
Description: Lentiviral particles were generated by transient co-transfection of 293T cells with the lentiviral vectors pLL3.7, pHR'8.9ΔVPR and pCMV-VSVG. CD34+ cells were infected in medium containing lentiviral particles and 8 μg/ml protamin. The culture medium was then removed and replaced with fresh media.
Next, the Inventors investigated whether expansion of CD34+CD90+ cells by TSA could affect the lentiviral transduction efficacy. A transfer vector encoding green fluorescent protein (GFP) was used for evaluation of lentiviral transduction. PBMC CD34+ cells were cultured with or without TSA for 3 days, followed by lentiviral transduction with protamin twice for 48 hours (FIG. 15A).

PBSC CD34+ cells [8] = assay: Real-time PCR of stem cell related genes; type: cell-based, human; details: 3 days of culture, relative to DMSO, p<0.05
Source text: Inventors prepared RNA from cells treated with wild-type or scrambled peptide using TRIzol (Invitrogen). The Inventors synthesized cDNA using iScript cDNA Synthesis kit (Bio-Rad, CA, USA). To quantitate the level of mRNAs expression, The Inventors carried out polymerase chain reaction (PCR) amplification using iScript one-step RT-PCR kit with SYBER Green (Bio-Rad) and the PCR products were detected by use of SYBR green technology (ABI, Foster City, Calif., USA). GAPDH was used as an endogenous control. All samples were run in duplicate. Thermal cycler conditions were 50° C. for 2 minutes, 95° C. for 10 minutes, and 45 cycles of 95° C. for 0.30 minutes and 60° C. for 1 minute. Results were obtained as threshold cycle (Ct) values and normalized gene expression with GAPDH. Data were analyzed based on 2-ΔΔCT method using CFX Manager software (Bio-Rad). For QPCR primers see Table 1.
Next, to investigate the molecular mechanism responsible for the expansion of functional HSCs and HSPC observed following TSA treatment, the Inventors examined expression levels of a number of genes involved in self-renewal or differentiation of stem cells using realtime PCR.

CD34+ cells [9] = assay: UM171 effect on division of CD34+ cells (total cell numbers); type: cell-based; details: 50 nM to 500 nM (1 uM); commercial and synthesized UM171

Nc1ccccc1NC(=O)c1ccc(CNC(=O)OCc2cccnc2)cc1 [MS275]
apoptotic cells (annexin V) (CD34+ cells [1]; 500 nM): did not significantly increased apoptotic cells
size of colonies derived from CFU-GM compared with control group (PBMC CD34+ cells [2]): much larger than control group
expression of CD34+CD90+ cells after one day exposure (PBSC CD34+ cells [3]): limit the expression of CD34+CD90+ cells
growth rate compared with DMSO (PBSC CD34+ cells [3]): about 2 times lower
cell growth (cell number) of CD34+ cells (PBSC CD34+ cells [3]): 16.7×10^4±1.06
absolute number of CD34+CD90+ cells (PBSC CD34+ cells [3]): increased
CD34+CD90+ population compared with that of DMSO treated CD34+ cells [4]: expanded CD34+CD90+ population
absolute number of CD34+CD90+ cells [4]: expanded the absolute number of CD34+CD90+ cells more than that of other compounds

O=C(CCCCCCC(=O)Nc1ccccc1)NO [SAHA]
CD34+CD90+ population compared with that of DMSO treated CD34+ cells [4]: expanded CD34+CD90+ population

CC(C)n1cnc2c(NCCc3ccc(O)cc3)nc(-c3csc4ccccc34)nc21 [SR1]
CD34+CD90+ population compared with that of DMSO treated CD34+ cells [4]: expanded CD34+CD90+ population

CC(/C=C/C(=O)NO)=C\[C@@H](C)C(=O)c1ccc(N(C)C)cc1 [TSA, trichostatin]
CD34+CD90+ cells less divided than CD34+CD90− cells (CD34+ cells [5]; TSA treatment): 31.4%
CD34+CD90+ cells more divided than CD34+CD90− cells (CD34+ cells [5]; TSA treatment): about 66.7%
CD34+ cells divided at least more than 4 times (CD34+ cells [5]): 9.02%
apoptotic cells (annexin V) (CD34+ cells [1]; 50 nM): did not significantly increased apoptotic cells
size of colonies derived from CFU-GM compared with control group (PBMC CD34+ cells [2]): much larger than control group
proportion of large (>50 clusters) and small (5-50 clusters) colonies (PBMC CD34+ cells [2]; FIG. 13B): gave mainly rise to large colonies
expression of CD34+CD90+ cells after one day exposure (PBSC CD34+ cells [3]): limit the expression of CD34+CD90+ cells
growth rate compared with DMSO (PBSC CD34+ cells [3]): about 2 times lower
cell growth (cell number) of CD34+ cells (PBSC CD34+ cells [3]): 28.3×10^4±0.49
expansion of CD34+CD90+ cells compared with DMSO treated cells (PBSC CD34+ cells [3]; day 3, day 5 and day 7, p<0.05): preferential expansion of CD34+CD90+ cells
absolute number of CD34+CD90+ cells (PBSC CD34+ cells [3]): increased
percentage of human CD45+ engraftment in peripheral blood (CB CD34+ cells; 2 weeks after transplant, day 5 progeny of 2×10^4 CB CD34+ cells, vs cytokine alone): higher percentage of human CD45+ engraftment
marrow-repopulating potential (human CD45+ cell engraftment in PB and BM) (CB CD34+ cells; 8 weeks after transplantation): enhances the marrow-repopulating potential
expansion of CD34+CD90+ cells (reported) [6]: reported to expand CD34+CD90+ cells
lentiviral transduction for CD34+ cells ex vivo (PBMC CD34+ cells [7]): promoted the lentiviral transduction
percentage of CD34+GFP+ cells (PBMC CD34+ cells [7]; 3 days culture with TSA, then lentiviral transduction, vs cells without treatment): higher than that of cells without treatment
CD34+CD90+ population compared with that of DMSO treated CD34+ cells [4]: expanded CD34+CD90+ population
absolute number of CD34+CD90+ cells [4]: expanded the absolute number of CD34+CD90+ cells more than that of other compounds
levels of transcripts for GATA1, GATA2, HOXA9, HOXB4, PTEN, SALL4, p53, TPO and CD34 genes (PBSC CD34+ cells [8]): higher levels of transcripts

Cn1nnc(-c2ccc3c(c2)[nH]c2nc(Cc4ccccc4)nc(NC4CCC(N)CC4)c23)n1 (stereo not drawn) [UM171]
total cell numbers (CD34+ cells [9]): very similar

COc1cc2c(NC3CCN(C(C)C)CC3)nc(C3CCCCC3)nc2cc1OCCCN1CCCC1 [UNC0638]
CD34+CD90+ population compared with that of DMSO treated CD34+ cells [4]: expanded CD34+CD90+ population

CCCC(CCC)C(=O)O [Valproic acid]
expansion of CD34+CD90+ cells (reported) [6]: reported to expand CD34+CD90+ cells

O=C1N[C@@H](Cc2ccccc2)C(=O)N2CCC[C@@H]2C(=O)N[C@@H](CCCCCC(=O)[C@@H]2CO2)C(=O)N[C@H]1Cc1ccccc1 [trapoxin] (cyclo(FF[dP][Aoe]))
expansion of CD34+CD90+ cells (reported) [6]: reported to expand CD34+CD90+ cells
